Source: publication PMC4309560, “Creating Novel Activated Factor XI Inhibitors through Fragment Based Lead Generation and Structure Aided Drug Design” (PLoS ONE, 2015)

How the values were obtained:
[1] = system: rat FXIa; test: Species selectivity: rat FXIa potency; assay type: biochemical; conditions: rat vs human FXIa
[2] = target: T1, Human recombinant thrombin (Homo sapiens, UniProt P00734); test: Thrombin (FIIa) chromogenic assay; assay type: biochemical; conditions: read-out: FIIa % inhibition at 99 μM
T1 construct: Human recombinant thrombin was prepared in house; made in house
Description: (§1) Enzymatic assay. […] Selected compounds were also screened against other serine proteases to evaluate their selectivity profiles.
(§2) Once the compounds were synthesized and characterized, enzymatic assays were performed to evaluate the inhibitory activity of the resulting compounds against FXIa and other serine proteases. […] IC50 values for the compounds were determined using equation: Q= V/(1+([I]/IC50)^n) Q denotes the assay readout, V denotes the uninhibited velocity of the enzyme, [I] denotes the inhibitor concentration, n denotes the slope and IC50 is the inhibitor concentration at V/2.
(§3) [S] denotes the substrate concentration.
Thrombin. Human recombinant thrombin was prepared in house.

[3] = target: T2, Human FXIa (Homo sapiens, UniProt P03951); test: FXIa enzymatic chromogenic assay; assay type: biochemical
T2 construct: purchased HTI, Essex Junction, USA
Description: as §1, §2, §3

[4] = target: Human tPA (Homo sapiens, UniProt P00750); test: biochemical; conditions: read-out: tPA % inhibition at 99 μM
Description: as §1, §2
tPa. Human tPA was from Biopool, Umeå, Sweden.

[5] = system: FXa, thrombin, trypsin, plasma kallikrein (PKK), FIXa, tissue plasminogen activator (tPA) and plasmin; test: Serine protease selectivity panel (statements on the whole panel); assay type: biochemical, human; conditions: relative to FXIa
Description: Enzymatic assay. […] Selected compounds were also screened against other serine proteases to evaluate their selectivity profiles. All protease activities were determined by chromogenic assays monitoring the release of para-nitroanilide at 405 nm.
It is important to achieve potent FXIa inhibitors with high selectivity vs. other serine proteases in order to minimize risk for adverse effects, particularly with regard to bleeding, which limits the utility of current antithrombotic drugs, e.g. dabigatran and rivaroxaban. Selectivity data for FXa, thrombin, trypsin, plasma kallikrein (PKK), FIXa, tissue plasminogen activator (tPA) and plasmin were therefore generated and are summarized in Fig. 6. […].
Once the compounds were synthesized and characterized, enzymatic assays were performed to evaluate the inhibitory activity of the resulting compounds against FXIa and other serine proteases. All protease activities were determined by chromogenic assays monitoring the release of para-nitroanilide at 405 nm. IC50 values for the compounds were determined using equation: Q= V/(1+([I]/IC50)^n) Q denotes the assay readout, V denotes the uninhibited velocity of the enzyme, [I] denotes the inhibitor concentration, n denotes the slope and IC50 is the inhibitor concentration at V/2.

[6] = Caco2 efflux; assay type: in vitro ADME; conditions: human, Caco-2; Caco2, Papp B to A / Papp A to B, pH 7.4 at side A
Text: Efflux was studied in the same Caco2 cells with the modification that HBSS buffer pH 7.4 was used on both sides of the monolayer. The permeability was studied in the apical to basolateral direction (Papp AB) as well as in the basolateral to apical direction and (Papp BA). Efflux ratios were derived from the following equation: Papp BA/Papp AB.

[7] = system: Caco2 cells; test: Caco2 permeability; assay type: in vitro ADME; conditions: measured at pH 6.5
Description: A monolayer of Caco2 cells, cultured on semi-permeable polycarbonate surfaces, was used to study the permeability in the apical to basolateral direction. The process was atomized by a robotic Tecan EVO platform (Männerdorf, Switzerland) and 24-transwell plates from Costar (Cambridge, MA, USA). HBSS buffer pH 7.4 was dispensed to the basal side of the monolayer. […] Samples for quantitative analysis by LC/MS/MS were withdrawn before the addition of the test substrate and at 45 and 120 min post addition of the test substrate. During incubation the transwell plates were placed in a shaking incubator at 37°C between sampling. The peak areas were exported to Excel where Papp-values and recoveries were calculated. Twenty-two reference compounds with known human oral bioavailability were used to establish a correlation curve with Papp versus the fraction of the oral dose absorbed (fa).

[8] = target: Human FXa (Homo sapiens, UniProt P00742); test: biochemical; conditions: read-out: FXa % inhibition at 99 μM
Description: as §1, §2

[9] = target: Human FIXa (Homo sapiens, UniProt P00740); test: biochemical; conditions: read-out: FIXa % inhibition at 99 μM
Description: as §1, §2

[10] = Chromatographic determination of lipophilicity; assay type: physicochemical; conditions: reversed-phase UPLC, Waters BEH C18 stationary phase, pH 7.4; measured by liquid chromatography, pH7.4
Text: The chromatographic data was obtained utilizing a Waters Aquity UPLC chromatographic system running a gradient from 5–95% acetonitrile at pH7.4. The stationary phase was a Waters BEH C18 2.1x50 mm. Standardized retention data were obtained by normalization against a set of compounds with precisely determined (octanol/water) logD-values. Lipophilicity values for samples were derived from a corresponding calibration curve.

[11] = target: T3, Human PKK (Homo sapiens, UniProt P03952); test: PKK (plasma kallikrein) chromogenic assay; assay type: biochemical
T3 construct: trypsin, plasma kallikrein (PKK), FIXa; purchased Calbiochem, Darmstadt, Germany
Description: as §1, §2, §3
PKK. Human PKK was from Calbiochem, Darmstadt, Germany.

T3 sequence (P03952 391-638 limits assumed): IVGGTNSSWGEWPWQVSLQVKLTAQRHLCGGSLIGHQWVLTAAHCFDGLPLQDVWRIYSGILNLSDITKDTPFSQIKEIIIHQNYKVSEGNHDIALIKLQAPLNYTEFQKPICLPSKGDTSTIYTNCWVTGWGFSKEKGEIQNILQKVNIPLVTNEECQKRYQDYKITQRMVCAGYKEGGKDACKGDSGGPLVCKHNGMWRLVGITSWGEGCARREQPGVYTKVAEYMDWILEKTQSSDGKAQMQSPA
T3 sequence (P03952 20-390 partner limits assumed): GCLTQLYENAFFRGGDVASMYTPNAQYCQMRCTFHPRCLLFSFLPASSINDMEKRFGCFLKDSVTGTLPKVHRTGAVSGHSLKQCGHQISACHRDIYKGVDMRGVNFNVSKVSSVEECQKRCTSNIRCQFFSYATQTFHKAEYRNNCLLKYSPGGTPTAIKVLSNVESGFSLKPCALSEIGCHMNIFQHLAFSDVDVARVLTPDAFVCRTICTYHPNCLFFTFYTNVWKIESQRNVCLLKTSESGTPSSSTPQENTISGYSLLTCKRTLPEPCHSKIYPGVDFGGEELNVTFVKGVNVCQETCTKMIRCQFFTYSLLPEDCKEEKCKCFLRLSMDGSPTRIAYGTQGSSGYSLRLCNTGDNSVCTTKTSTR
T2 sequence (P03951 388-625): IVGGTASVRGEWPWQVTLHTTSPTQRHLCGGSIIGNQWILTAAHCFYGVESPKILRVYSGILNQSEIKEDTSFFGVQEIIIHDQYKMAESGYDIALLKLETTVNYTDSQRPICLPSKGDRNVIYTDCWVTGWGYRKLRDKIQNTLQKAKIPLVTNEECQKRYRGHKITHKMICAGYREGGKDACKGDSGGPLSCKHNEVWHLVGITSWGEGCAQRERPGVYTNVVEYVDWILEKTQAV
T2 sequence (P03951 19-387): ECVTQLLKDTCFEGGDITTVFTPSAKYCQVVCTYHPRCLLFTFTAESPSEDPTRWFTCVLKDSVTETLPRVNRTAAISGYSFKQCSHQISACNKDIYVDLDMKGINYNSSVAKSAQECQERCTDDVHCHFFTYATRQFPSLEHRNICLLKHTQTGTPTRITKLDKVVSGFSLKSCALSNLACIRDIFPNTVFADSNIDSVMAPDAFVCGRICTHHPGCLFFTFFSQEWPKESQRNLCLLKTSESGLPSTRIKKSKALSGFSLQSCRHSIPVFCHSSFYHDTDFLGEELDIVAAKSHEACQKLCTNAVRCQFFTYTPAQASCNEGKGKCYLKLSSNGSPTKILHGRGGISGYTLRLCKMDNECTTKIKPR
Chain of Human tPA (P00750 36-562): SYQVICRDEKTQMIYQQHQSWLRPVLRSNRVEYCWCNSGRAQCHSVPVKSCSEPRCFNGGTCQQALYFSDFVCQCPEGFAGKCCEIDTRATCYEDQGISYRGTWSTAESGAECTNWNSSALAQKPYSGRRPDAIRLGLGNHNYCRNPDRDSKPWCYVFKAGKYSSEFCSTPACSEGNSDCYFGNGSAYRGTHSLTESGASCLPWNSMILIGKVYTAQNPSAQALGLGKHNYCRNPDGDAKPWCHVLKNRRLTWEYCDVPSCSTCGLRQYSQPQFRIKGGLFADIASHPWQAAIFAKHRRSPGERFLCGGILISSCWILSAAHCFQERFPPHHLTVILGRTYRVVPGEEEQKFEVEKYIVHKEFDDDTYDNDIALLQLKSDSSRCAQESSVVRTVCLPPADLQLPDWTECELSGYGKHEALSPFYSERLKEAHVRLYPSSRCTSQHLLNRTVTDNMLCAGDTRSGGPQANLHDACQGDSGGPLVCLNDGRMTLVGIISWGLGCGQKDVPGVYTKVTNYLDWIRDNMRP
Chain of Human FXa (P00742 235-488 limits assumed): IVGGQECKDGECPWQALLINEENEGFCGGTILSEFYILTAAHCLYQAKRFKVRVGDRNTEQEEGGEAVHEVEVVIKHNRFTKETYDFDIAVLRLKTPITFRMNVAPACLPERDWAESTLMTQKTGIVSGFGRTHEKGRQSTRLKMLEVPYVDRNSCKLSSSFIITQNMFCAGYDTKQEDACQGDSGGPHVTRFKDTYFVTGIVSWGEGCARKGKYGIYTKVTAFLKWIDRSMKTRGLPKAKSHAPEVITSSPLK
Chain of Human FXa (P00742 41-179 partner limits assumed): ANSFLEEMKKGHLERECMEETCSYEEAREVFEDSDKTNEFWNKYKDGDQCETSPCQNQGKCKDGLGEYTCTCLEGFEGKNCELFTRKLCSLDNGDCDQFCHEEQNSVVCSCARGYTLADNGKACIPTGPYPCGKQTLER
Chain of Human FIXa (P00740 227-461 limits assumed): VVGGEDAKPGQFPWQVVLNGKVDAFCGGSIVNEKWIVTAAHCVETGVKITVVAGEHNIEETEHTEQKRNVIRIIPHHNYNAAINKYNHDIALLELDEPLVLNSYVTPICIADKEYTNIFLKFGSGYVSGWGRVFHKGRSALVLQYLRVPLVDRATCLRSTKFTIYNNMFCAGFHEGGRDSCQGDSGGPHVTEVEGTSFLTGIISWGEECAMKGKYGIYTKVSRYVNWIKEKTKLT
Chain of Human FIXa (P00740 47-191 partner limits assumed): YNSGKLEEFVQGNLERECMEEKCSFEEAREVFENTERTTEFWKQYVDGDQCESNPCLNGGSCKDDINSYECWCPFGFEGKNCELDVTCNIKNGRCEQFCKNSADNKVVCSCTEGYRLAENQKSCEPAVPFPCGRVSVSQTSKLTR

Which results are given for `O=C(N[C@@H](Cc1ccccc1)C(=O)NCc1cc(=O)[nH]c2ccc(Cl)cc12)c1ccc2[nH]c(=O)cc(O)c2c1` [Compound 13, (S)-N-(1-{(6-Chloro-2-oxo-1,2-dihydroquinolin-4-yl)methylamino}-1-oxo-3-phenylpropan-2-yl)-4-hydroxy-2-oxo-1,2-dihydroquinoline-6-carboxamide]?
potency against rat FXIa relative to human FXIa (fold less potent) [1]: about 30000 fold; inhibition at 99 µM [2]: 11%; IC50 [3]: 1 nM; ligand efficiency (LE) ([3]; FXIa): 0.32; ΔG (binding free energy) ([3]; FXIa, term of the ΔG link equation): -12.7 kcal/mol; ΔG link (linker contribution) ([3]; compound 13 relative to fragments 5 and 15): -3.13 kcal/mol; Ki ([3]; read-out: FXIa Ki): 0.5 nM; inhibition at 99 µM [4]: 2%; selectivity vs. all proteases in the panel, except PKK [5]: more than five orders of magnitude selectivity; efflux ratio [6]: > 4.6; Caco2 A to B permeability [7]: < 0.28 1·10^-6 cm/s; inhibition at 99 µM [8]: 18%; inhibition at 99 µM [9]: 2%; chromatographic logD [10]: 0.87; IC50 [11]: 27 nM; selectivity vs. PKK ([11]; FXIa over PKK, for 13 based on Ki values): 11 fold; Ki ([11]; converted from IC50): 5.6 nM
